From PubChem BioAssay AID328 (DTP/NCI, 2004)
Where “and” joins values, the source holds several entries; their conditions need not be identical. Equal values may be shown once. Inconclusive results and toxic doses are left out. Rule for the calls: active = survival T/C of 150% or more; inactive = T/C below 125% in these data.

Test system: BDF1 mice, P388 leukemia ip, median survival T/C
Assay: NCI In Vivo Anticancer Drug Screen. Data for tumor model P388 Leukemia (intraperitoneal) in B6D2F1 (BDF1) mice
Conditions: endpoint: median survival time, higher = longer survival
In short: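 Transplantable tumour in mice; compound vs vehicle dosing; survival scored; ratio of treated to control reported.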

[1] = dose: 100.0 mg/kg/injection, schedule: Q01DX009 (ip), vehicle: Klucel (hydroxypropylcellulose) (HPC)
[2] = dose: 100.0 mg/kg/injection, schedule: Q04DX003 (ip), vehicle: Klucel (hydroxypropylcellulose) (HPC)
[3] = dose: 200.0 mg/kg/injection, schedule: Q01DX009 (ip), vehicle: Klucel (hydroxypropylcellulose) (HPC)
[4] = dose: 200.0 mg/kg/injection, schedule: Q04DX003 (ip), vehicle: Klucel (hydroxypropylcellulose) (HPC)
[5] = dose: 400.0 mg/kg/injection, schedule: Q01DX009 (ip), vehicle: Klucel (hydroxypropylcellulose) (HPC)
[6] = dose: 400.0 mg/kg/injection, schedule: Q04DX003 (ip), vehicle: Klucel (hydroxypropylcellulose) (HPC)
[7] = dose: 25.0 mg/kg/injection, schedule: Q04DX003 (ip), vehicle: saline
[8] = dose: 50.0 mg/kg/injection, schedule: Q04DX003 (ip), vehicle: saline
[9] = dose: 100.0 mg/kg/injection, schedule: Q04DX003 (ip), vehicle: saline
[10] = dose: 50.0 mg/kg/injection, schedule: Q01DX009 (ip), vehicle: saline with Tween-80
[11] = dose: 100.0 mg/kg/injection, schedule: Q01DX009 (ip), vehicle: saline with Tween-80
[12] = dose: 200.0 mg/kg/injection, schedule: Q01DX009 (ip), vehicle: saline with Tween-80
[13] = dose: 25.0 mg/kg/injection, schedule: Q01DX009 (ip), vehicle: Klucel (hydroxypropylcellulose) (HPC)
[14] = dose: 12.5 mg/kg/injection, schedule: Q01DX009 (ip), vehicle: water
[15] = dose: 25.0 mg/kg/injection, schedule: Q01DX009 (ip), vehicle: water
[16] = dose: 50.0 mg/kg/injection, schedule: Q01DX009 (ip), vehicle: water

Measured: T/C

CC(C)n1c(=O)c2ccccc2[s+]1-c1ccccc1 (configuration not stated)
inactive: dose: 100.0 mg/kg/injection, schedule: Q01DX001 (ip), vehicle: saline with Tween-80 95 % of control | dose: 200.0 mg/kg/injection, schedule: Q01DX001 (ip), vehicle: saline with Tween-80 95 % of control | dose: 400.0 mg/kg/injection, schedule: Q01DX001 (ip), vehicle: saline with Tween-80 92 % of control

O=C(COc1ccccc1)NCCO
inactive: [1] 100 % of control | [2] 91 % of control | [3] 100 % of control | [4] 91 % of control | [5] 100 % of control | [6] 91 % of control

CC1(C)N=C(N)N=C(N)N1c1cccc(CN)c1
inactive: dose: 12.5 mg/kg/injection, schedule: Q04DX003 (ip), vehicle: saline 90 % of control | dose: 25.0 mg/kg/injection, schedule: Q01DX009 (ip), vehicle: saline 100 % of control | [7] 100 % of control | dose: 50.0 mg/kg/injection, schedule: Q01DX009 (ip), vehicle: saline 95 % of control and 105 % of control | [8] 100 % of control | dose: 100.0 mg/kg/injection, schedule: Q01DX009 (ip), vehicle: saline 90 % of control and 110 % of control | [9] 104 % of control

CCCCOCN1COCC1(C)C
inactive: [8] 100 % of control | [9] 105 % of control

CC(=O)c1cccc(N)c1
inactive: dose: 100.0 mg/kg/injection, schedule: Q01DX001 (ip), vehicle: Klucel (hydroxypropylcellulose) (HPC) 104 % of control | [1] 100 % of control | [2] 100 % of control | dose: 200.0 mg/kg/injection, schedule: Q01DX001 (ip), vehicle: Klucel (hydroxypropylcellulose) (HPC) 100 % of control | [3] 91 % of control | [4] 109 % of control | dose: 400.0 mg/kg/injection, schedule: Q01DX001 (ip), vehicle: Klucel (hydroxypropylcellulose) (HPC) 113 % of control | [5] 95 % of control | [6] 109 % of control

CC(C)(C)OC(=O)NC(CC(Cc1ccccc1)C(=O)O)C(=O)NC(CC(Cc1ccccc1)C(=O)O)C(=O)NC(CC(Cc1ccccc1)C(=O)O)C(=O)NCC(=O)Oc1ccc([N+](=O)[O-])cc1 (configuration not stated)
inactive: dose: 50.0 mg/kg/injection, schedule: Q01DX005 (ip), vehicle: saline with Tween-80 86 % of control | dose: 200.0 mg/kg/injection, schedule: Q01DX005 (ip), vehicle: saline with Tween-80 104 % of control

CCCCCCCCCCCCCCCC(=O)N(CC#N)CC#N
inactive: [2] 100 % of control | [4] 100 % of control | [6] 90 % of control

CCN(CC)CCCOC(=O)/C=C/c1c(C)[nH]c(=O)[nH]c1=O
inactive: [7] 104 % of control | [8] 117 % of control | [9] 90 % of control

C=CCN1C=CC(=C/C=C(\C#N)C(=O)OCC)C=C1
inactive: [10] 99 % of control | [11] 91 % of control | [12] 99 % of control

Clc1ccc(C[P+](c2ccccc2)(c2ccccc2)c2ccccc2)c(Cl)c1
inactive: dose: 1.4 mg/kg/injection, schedule: Q01DX009 (ip), vehicle: saline 120 % of control | dose: 7.5 mg/kg/injection, schedule: Q01DX009 (ip), vehicle: saline 115 % of control

CCCCCCC(=O)CC(SCC)c1ccc(Cl)cc1 (configuration not stated)
inactive: [10] 98 % of control | [11] 102 % of control | [12] 112 % of control

C=C1C(=O)OC2/C=C(\C)C(=O)/C=C\C(C)(O)CC(OC(=O)C(C)C)C12 (configuration not stated)
inactive: dose: 25.0 mg/kg/injection, schedule: Q01DX009 (ip), vehicle: saline + alcohol 100 % of control

NCCNc1ccc(NCCN)c2c1C(=O)c1ccccc1C2=O
active: dose: 6.25 mg/kg/injection, schedule: Q01DX009 (ip), vehicle: other 214 % of control

CNc1ccc(/C=C2\C=Cc3ccccc32)cc1
inactive: dose: 12.0 mg/kg/injection, schedule: Q01DX009 (ip), vehicle: Klucel (hydroxypropylcellulose) (HPC) 118 % of control | dose: 12.0 mg/kg/injection, schedule: Q01DX009 (ip), vehicle: gum acacia 107 % of control | dose: 12.5 mg/kg/injection, schedule: Q04DX003 (ip), vehicle: gum acacia 103 % of control | [13] 100 % of control | dose: 25.0 mg/kg/injection, schedule: Q01DX009 (ip), vehicle: gum acacia 103 % of control | dose: 25.0 mg/kg/injection, schedule: Q04DX003 (ip), vehicle: Klucel (hydroxypropylcellulose) (HPC) 104 % of control | dose: 25.0 mg/kg/injection, schedule: Q04DX003 (ip), vehicle: gum acacia 100 % of control | dose: 50.0 mg/kg/injection, schedule: Q01DX009 (ip), vehicle: Klucel (hydroxypropylcellulose) (HPC) 90 % of control | dose: 50.0 mg/kg/injection, schedule: Q01DX009 (ip), vehicle: gum acacia 92 % of control | dose: 50.0 mg/kg/injection, schedule: Q04DX003 (ip), vehicle: Klucel (hydroxypropylcellulose) (HPC) 100 % of control | dose: 50.0 mg/kg/injection, schedule: Q04DX003 (ip), vehicle: gum acacia 103 % of control | [2] 86 % of control and 95 % of control

CC(C(=O)O)N(CC(=O)O)CC(=O)O.[Co+2].[NH-]CC(=O)O (configuration not stated)
inactive: [14] 99 % of control | [15] 108 % of control | [16] 105 % of control | dose: 50.0 mg/kg/injection, schedule: Q04DX003 (ip), vehicle: water 103 % of control | dose: 100.0 mg/kg/injection, schedule: Q04DX003 (ip), vehicle: water 96 % of control

CCC[CH2][Sn]([Cl])([CH2]CCC)[S]C(=S)NCCNC(=S)[S][Sn]([Cl])([CH2]CCC)[CH2]CCC
inactive: dose: 1.56 mg/kg/injection, schedule: Q04DX003 (ip), vehicle: Klucel (hydroxypropylcellulose) (HPC) 110 % of control | dose: 3.12 mg/kg/injection, schedule: Q01DX009 (ip), vehicle: Klucel (hydroxypropylcellulose) (HPC) 105 % of control | dose: 3.13 mg/kg/injection, schedule: Q04DX003 (ip), vehicle: Klucel (hydroxypropylcellulose) (HPC) 124 % of control | dose: 12.5 mg/kg/injection, schedule: Q04DX003 (ip), vehicle: Klucel (hydroxypropylcellulose) (HPC) 100 % of control and 105 % of control
active: dose: 6.25 mg/kg/injection, schedule: Q01DX009 (ip), vehicle: Klucel (hydroxypropylcellulose) (HPC) 153 % of control | dose: 6.25 mg/kg/injection, schedule: Q04DX003 (ip), vehicle: Klucel (hydroxypropylcellulose) (HPC) 154 % of control | dose: 12.5 mg/kg/injection, schedule: Q01DX009 (ip), vehicle: Klucel (hydroxypropylcellulose) (HPC) 156 % of control and 158 % of control | [13] 194 % of control

COC(=O)Nc1nc2ccc(Br)cc2[nH]1
inactive: [1] 104 % of control | [2] 109 % of control | [3] 112 % of control | [4] 109 % of control | [5] 116 % of control | [6] 113 % of control

C[n+]1ccc(Nc2ccc(NC(=O)c3ccc(Nc4cc[n+](C)c5ccc([N+](=O)[O-])cc45)cc3[N+](=O)[O-])cc2)cc1
inactive: [7] 105 % of control and 116 % of control
active: dose: 200.0 mg/kg/injection, schedule: Q04DX003 (ip), vehicle: saline 158 % of control and 203 % of control

O=[N+]([O-])C=C(S)S
inactive: [14] 101 % of control | [15] 124 % of control | [16] 117 % of control | dose: 100.0 mg/kg/injection, schedule: Q01DX009 (ip), vehicle: water 108 % of control

CCN(CC)S(=O)(=O)c1ccc(-c2cc(Cl)c3cc(S(=O)(=O)F)ccc3n2)cc1
inactive: [11] 110 % of control | [12] 90 % of control | dose: 400.0 mg/kg/injection, schedule: Q01DX009 (ip), vehicle: saline with Tween-80 100 % of control

Clc1cc(C(Cl)(Cl)Cl)c(Cl)cc1C(Cl)(Cl)Cl
inactive: dose: 100.0 mg/kg/injection, schedule: Q04DX003 (ip), vehicle: saline with Tween-80 100 % of control | dose: 200.0 mg/kg/injection, schedule: Q04DX003 (ip), vehicle: saline with Tween-80 105 % of control | dose: 400.0 mg/kg/injection, schedule: Q04DX003 (ip), vehicle: saline with Tween-80 110 % of control

Nc1cc(Cl)ncn1
inactive: dose: 60.0 mg/kg/injection, schedule: Q01DX009 (ip), vehicle: saline 100 % of control | dose: 90.0 mg/kg/injection, schedule: Q01DX009 (ip), vehicle: saline 97 % of control | dose: 175.0 mg/kg/injection, schedule: Q01DX009 (ip), vehicle: saline 97 % of control | [3] 95 % of control
